In PubChem BioAssay (NCI):
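Compound exposure: 48 hours, 5 concentrations, 96-well plates. The concentration for full growth arrest is given as TGI.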

Experiments:
Test in all cases: NCI tumour cell line growth inhibition, 48 h
U251 CNS = system: U251 CNS
RPMI-8226 leukemia = system: RPMI-8226 leukemia
HCC-2998 colon = system: HCC-2998 colon
UACC-257 melanoma = system: UACC-257 melanoma
COLO 205 colon = system: COLO 205 colon
SN12C renal = system: SN12C renal
SNB-19 CNS = system: SNB-19 CNS
KM20L2 colon = system: KM20L2 colon
A498 renal = system: A498 renal
XF 498 CNS = system: XF 498 CNS
OVCAR-8 ovarian = system: OVCAR-8 ovarian
M14 melanoma = system: M14 melanoma
K-562 leukemia = system: K-562 leukemia
DMS 114 small cell lung = system: DMS 114 small cell lung
MALME-3M melanoma = system: MALME-3M melanoma
RXF-631 renal = system: RXF-631 renal
M19-MEL melanoma = system: M19-MEL melanoma
HT29 colon = system: HT29 colon
HCT-116 colon = system: HCT-116 colon
NCI-H460 lung = system: NCI-H460 lung
A549 NSCLC = system: A549 NSCLC
HL-60(TB) leukemia = system: HL-60(TB) leukemia
KM12 colon = system: KM12 colon
SF-295 CNS = system: SF-295 CNS
OVCAR-4 ovarian = system: OVCAR-4 ovarian
OVCAR-5 ovarian = system: OVCAR-5 ovarian
SR leukemia = system: SR leukemia
CCRF-CEM leukemia = system: CCRF-CEM leukemia
OVCAR-3 ovarian = system: OVCAR-3 ovarian
EKVX NSCLC = system: EKVX NSCLC
CAKI-1 renal = system: CAKI-1 renal
NCI-H226 lung = system: NCI-H226 lung
786-0 renal = system: 786-0 renal
IGROV1 ovarian = system: IGROV1 ovarian
SNB-78 CNS = system: SNB-78 CNS
SF-539 CNS = system: SF-539 CNS
DMS 273 small cell lung = system: DMS 273 small cell lung
DLD-1 colon = system: DLD-1 colon
ACHN renal = system: ACHN renal
HCT-15 colon = system: HCT-15 colon
NCI-H522 lung = system: NCI-H522 lung
UACC-62 melanoma = system: UACC-62 melanoma
NCI-H23 lung = system: NCI-H23 lung
SW-620 colon = system: SW-620 colon
UO-31 renal = system: UO-31 renal
SK-MEL-2 melanoma = system: SK-MEL-2 melanoma
SK-MEL-28 melanoma = system: SK-MEL-28 melanoma
HOP-62 NSCLC = system: HOP-62 NSCLC
RXF 393 renal = system: RXF 393 renal
SF-268 CNS = system: SF-268 CNS
MOLT-4 leukemia = system: MOLT-4 leukemia
LOX IMVI melanoma = system: LOX IMVI melanoma
SK-OV-3 ovarian = system: SK-OV-3 ovarian
SNB-75 CNS = system: SNB-75 CNS
HOP-18 NSCLC = system: HOP-18 NSCLC
HOP-92 NSCLC = system: HOP-92 NSCLC
SK-MEL-5 melanoma = system: SK-MEL-5 melanoma
LXFL 529 NSCLC = system: LXFL 529 NSCLC
TK-10 renal = system: TK-10 renal

Measured: TGI

O=C(O)/C=C/n1c2ccccc2c(=O)c2ccccc21
> 100 µM: U251 CNS | RPMI-8226 leukemia | HCC-2998 colon | UACC-257 melanoma | COLO 205 colon | SN12C renal | SNB-19 CNS | KM20L2 colon | A498 renal | XF 498 CNS | OVCAR-8 ovarian | M14 melanoma | K-562 leukemia | DMS 114 small cell lung | MALME-3M melanoma | RXF-631 renal | M19-MEL melanoma | HT29 colon | HCT-116 colon | NCI-H460 lung | A549 NSCLC | HL-60(TB) leukemia | KM12 colon | SF-295 CNS | OVCAR-4 ovarian | OVCAR-5 ovarian | SR leukemia | CCRF-CEM leukemia | OVCAR-3 ovarian | EKVX NSCLC | CAKI-1 renal | NCI-H226 lung | 786-0 renal | IGROV1 ovarian | SNB-78 CNS | SF-539 CNS | DMS 273 small cell lung | DLD-1 colon | ACHN renal | HCT-15 colon | NCI-H522 lung | UACC-62 melanoma | NCI-H23 lung | SW-620 colon | UO-31 renal | SK-MEL-2 melanoma | SK-MEL-28 melanoma | HOP-62 NSCLC | RXF 393 renal | SF-268 CNS | MOLT-4 leukemia | LOX IMVI melanoma

COC(=O)CCC(=O)CC(=O)C1=NS(=O)(=O)c2nc(S(N)(=O)=O)c(Cl)cc2N1
> 100 µM: U251 CNS | SK-OV-3 ovarian | RPMI-8226 leukemia | HCC-2998 colon | SNB-75 CNS | UACC-257 melanoma | COLO 205 colon | HOP-18 NSCLC | SN12C renal | SNB-19 CNS | KM20L2 colon | A498 renal | XF 498 CNS | OVCAR-8 ovarian | M14 melanoma | K-562 leukemia | DMS 114 small cell lung | MALME-3M melanoma | RXF-631 renal | M19-MEL melanoma | HT29 colon | HCT-116 colon | NCI-H460 lung | HOP-92 NSCLC | A549 NSCLC | HL-60(TB) leukemia | SK-MEL-5 melanoma | KM12 colon | SF-295 CNS | OVCAR-4 ovarian | OVCAR-5 ovarian | SR leukemia | LXFL 529 NSCLC | CCRF-CEM leukemia | OVCAR-3 ovarian | EKVX NSCLC | CAKI-1 renal | NCI-H226 lung | IGROV1 ovarian | SF-539 CNS | DMS 273 small cell lung | DLD-1 colon | TK-10 renal | ACHN renal | HCT-15 colon | NCI-H522 lung | UACC-62 melanoma | NCI-H23 lung | UO-31 renal | SK-MEL-2 melanoma | SK-MEL-28 melanoma | HOP-62 NSCLC | RXF 393 renal | SF-268 CNS | MOLT-4 leukemia | LOX IMVI melanoma
